These results are taken from patent publication US5194424A, “C^63 -amide derivatives of 34-de(acetylglucosaminyl)-34-deoxy-teicoplanin and their use as medicaments against bacteria resistant to glycopeptide antibiotics” (Gruppo Lepetit SpA, priority 1988, dated 1993).

In assay [1] the test system is Streptococcus pneumoniae UC 41. As to the kind of experiment: In vitro MIC, standard agar-dilution test in microtiter. It counts as cell-based. To be noted: TODD-HEWITT broth, inoculum about 10^4 CFU/ml, 18-24 h at 37° C. On the procedure:
(§1) The antibacterial activity, of the compounds of the invention is determined in vitro by means of standard agar-dilution tests in microtiter. ISOSENSITEST broth (Oxoid) and TODD-[…] broth (Difco) are used for growing Staphylococci and Streptococci. respectively. Broth cultures are diluted so that the final inoculum is about 10^4 forming units/ml (CFU/ml).

Assay [2] has as its system Staphylococcus haemolyticus L 602. Described as above. Conditions: ISOSENSITEST broth, inoculum about 10^4 CFU/ml, 18-24 h at 37° C. In kind it is cell-based. On the procedure:
as §1

In assay [3] the test system is Staphylococcus aureus TOUR. Described as above. It counts as cell-based. Conditions: ISOSENSITEST broth, inoculum about 10^4 CFU/ml, 18-24 h at 37° C. On the procedure: (§2) The antibacterial activity, of the compounds of the invention is determined in vitro by means of standard agar-dilution tests in microtiter. ISOSENSITEST broth (Oxoid) and TODD-HEWITT broth (Difco) are used for growing Staphylococci and Streptococci. respectively. Broth cultures are diluted so that the final inoculum is about 10^4 forming units/ml (CFU/ml).

The subject of assay [4] is Streptococcus faecalis ATCC 7080. The assay is described as above. It counts as cell-based. Conditions: TODD-HEWITT broth, inoculum about 10^4 CFU/ml, 18-24 h at 37° C. On the procedure: as §2
Assay [5] has as its system Staphylococcus epidermidis ATCC 12228. The description is as above. To be noted: ISOSENSITEST broth, inoculum about 10^4 CFU/ml, 18-24 h at 37° C. In kind it is cell-based. On the procedure:
as §2

The test system of assay [6] is Streptococcus pyogenes C 203. The assay is described as above. In kind it is cell-based. Conditions: TODD-HEWITT broth, inoculum about 10^4 CFU/ml, 18-24 h at 37° C. On the procedure: as §2
Assay [7] concerns glycopeptide-resistant E. faecium. Kind of assay: In vitro MIC against glycopeptide-resistant Enterococci. It counts as cell-based. On the procedure:
(§3) In particular, the activity of the compounds of the invention was confirmed through in vitro experiments carried out with clinical isolates resistant to glycopeptide antibiotics such as with Enterococci faecalis, Enterococci faecium, as shown in Table IIa.
(§4) The antibacterial activity is determined in vitro by means of standard
(§5) agardilution tests in microtiter. ISOSENSITEST broth (Oxoid) is used for
(§6) growing Enterococci. Broth cultures are diluted so that the final inoculu
(§7) is about 5 × 10^5 forming units/ml (CFU/ml).

The subject of assay [8] is glycopeptide-resistant E. faecalis. The description is as above. It counts as cell-based. On the procedure: as §3, §4, §5, §6, §7
The test system of assay [9] is clinical isolates of Streptococcus pyogenes. Kind of assay: MIC against clinical isolates of Streptococcus pyogenes. It counts as cell-based. As to the method: as §2
Assay [10] relates to Streptococcus pyogenes C 203. To be noted: comparison statement for teicoplanin and prior-art compounds; never lower than; cited from earlier work.
[11] abbreviates: E. faecium L 1666, ISOSENSITEST broth, inoculum about 5 × 10^5 CFU/ml.

For `CC(C)CCCCCCC(=O)N[C@H]1[C@H](Oc2c3cc4cc2Oc2ccc(cc2Cl)CC2NC(=O)C(NC(=O)C4NC(=O)C4NC(=O)C(Cc5ccc(c(Cl)c5)O3)NC(=O)C(N)c3ccc(O)c(c3)Oc3cc(O)cc4c3)c3ccc(O)c(c3)-c3c(O[C@H]4O[C@H](CO)[C@@H](O)[C@H](O)[C@@H]4O)cc(O)cc3C(C(=O)NCCCN(C)C)NC2=O)O[C@H](CO)[C@@H](O)[C@@H]1O` (stereo partly shown) [Compound 6], the MIC amounted to 0.25 microgram/ml in assay [1]; 1 microgram/ml in assay [2]; 2 microgram/ml in [3]; 2 microgram/ml in assay [4]; 0.12 microgram/ml in assay [5]; 0.06 microgram/ml in [6].
On to `CN[C@H](CC(C)C)C(=O)N[C@H]1C(=O)N[C@@H](CC(N)=O)C(=O)N[C@H]2C(=O)N[C@H]3C(=O)N[C@H](C(=O)N[C@H](C(=O)O)c4cc(O)cc(O)c4-c4cc3ccc4O)[C@H](O)c3ccc(c(Cl)c3)Oc3cc2cc(c3O[C@@H]2O[C@H](CO)[C@@H](O)[C@H](O)[C@H]2O[C@H]2C[C@](C)(N)[C@H](O)[C@H](C)O2)Oc2ccc(cc2Cl)[C@H]1O` [VANCO, vancomycin], for which the MIC in [7] (setting [11]) was > 128 mg/L; in [7] (Enterococcus faecium) it was > 128 mg/L; in assay [7] (Enterococcus faecium, NCTC12203) it was > 128 mg/L; in [8] (Enterococcus faecalis) it was > 128 mg/L; in assay [8] (Enterococcus faecalis, NCTC12201) it was > 128 mg/L; in assay [8] (Enterococcus faecalis, NCTC12202), > 128 mg/L.
Consider `CC(C)CCCCCCC(=O)N[C@H]1[C@H](Oc2c3cc4cc2Oc2ccc(cc2Cl)CC2NC(=O)C(NC(=O)C4NC(=O)C4NC(=O)C(Cc5ccc(c(Cl)c5)O3)NC(=O)C(N)c3ccc(O)c(c3)Oc3cc(O)cc4c3)c3ccc(O)c(c3)-c3c(O[C@H]4O[C@H](CO)[C@@H](O)[C@H](O)[C@@H]4O)cc(O)cc3C(C(=O)NCCCN(CCCN)CCCN)NC2=O)O[C@H](CO)[C@@H](O)[C@@H]1O` (stereo partly shown) [Compound 33], for which the MIC in [1] amounted to 0.12 microgram/ml; in assay [2], 0.032 microgram/ml; in assay [3], 0.12 microgram/ml; in [4], 0.12 microgram/ml; in assay [5], 0.004 microgram/ml; in [6], 0.004 microgram/ml.
Regarding `CC(C)CCCCCCC(=O)N[C@H]1[C@H](Oc2c3cc4cc2Oc2ccc(cc2Cl)CC2NC(=O)C(NC(=O)C4NC(=O)C4NC(=O)C(Cc5ccc(c(Cl)c5)O3)NC(=O)C(N)c3ccc(O)c(c3)Oc3cc(O)cc4c3)c3ccc(O)c(c3)-c3c(O[C@H]4O[C@H](CO)[C@@H](O)[C@H](O)[C@@H]4O)cc(O)cc3C(C(=O)NCCCNCCO)NC2=O)O[C@H](CO)[C@@H](O)[C@@H]1O` (stereo partly shown) [Compound 7], the MIC is on record as 0.25 microgram/ml in assay [1]; 1 microgram/ml in assay [2]; 1 microgram/ml in assay [3]; 2 microgram/ml in assay [4]; 0.06 microgram/ml in assay [5]; 0.032 microgram/ml in [6].
teicoplanin: the MIC was > 128 mg/L in assay [7] (setting [11]); 64 mg/L in assay [7] (E. faecium NCTC 12203, ISOSENSITEST broth, inoculum about 5 × 10^5 CFU/ml); 64 mg/L in assay [7] (E. faecium NTCT 12204, ISOSENSITEST broth, inoculum about 5 × 10^5 CFU/ml); > 128 mg/L in [8] (E. faecalis L 560, ISOSENSITEST broth, inoculum about 5 × 10^5 CFU/ml); 128 mg/L in assay [8] (E. faecalis NCTC 12201, ISOSENSITEST broth, inoculum about 5 × 10^5 CFU/ml); 128 mg/L in assay [8] (E. faecalis NCTC 12202, ISOSENSITEST broth, inoculum about 5 × 10^5 CFU/ml). The MIC in assay [9] (S. pyogenes strain L-33), in assay [9] (S. pyogenes strain L-317), in assay [9] (S. pyogenes strain L-800), in assay [9] (S. pyogenes strain L-801), in [9] (S. pyogenes strain L-802) and in assay [9] (S. pyogenes strain L-803) was 0.063 microgram/ml throughout. The MIC in [9] (S. pyogenes strain L-804) amounted to 0.063 microgram/ml; in assay [9] (S. pyogenes strain L-805) it was 0.063 microgram/ml; in assay [9] (S. pyogenes strain L-1303), 0.063 microgram/ml; in [9] (S. pyogenes strain L-1304), 0.125 microgram/ml; in assay [9] (S. pyogenes strain L-1306), 0.125 microgram/ml; in [9] (S. pyogenes strain L-1315), 0.063 microgram/ml. In addition, the MIC in assay [9] (S. pyogenes strain L-1316), in [9] (S. pyogenes strain L-1318) and in assay [9] (S. pyogenes strain L-1319) was 0.063 microgram/ml in each case. Also, the “MIC against Streptococcus pyogenes” value in assay [10] is on record as ≥ 0.06 microgram/ml.
